Data taken from patent US5705531A, “1,5-disubstituted 7A-methylperhydroinden-3A-ol derivatives, useful in treating cardiovascular disorders, processes for their preparation and pharmaceutical compositions containing the same” (Sigma-Tau Industrie Farmaceutiche Riunite S.p.A., priority 1994, dated 1998).
Counter-ions that a name gives are not always drawn.

Columns and labels:
[1] = target: T1, Na^+,K^+ -ATPase (Homo sapiens, UniProt P05023); test: displacement of the specific 3H-ouabain binding from the purified Na+,K+-ATPase receptor
T1 construct: Na^+,K^+ -ATPase receptor purified according to Jorghensen; from tissue
Description: (§1) To test the affinity for the receptor site of the Na^+,K^+ -ATPase and the agonist or antagonist activity on the enzyme, the following tests were used:
a) displacement of the specific ^3 H-ouabain binding from the Na^+,K^+ -ATPase receptor purified according to Jorghensen (Jorghensen P., BBA, 1974, 356, 36) and Erdmann (Erdmann E. et al., Arzneim. Forsh., 1984, 34, 1314);

[2] = target: T1, Na^+,K^+ -ATPase; test: inhibition of the activity of the purified Na+,K+-ATPase (% hydrolysis of 32P-ATP); assay type: biochemical
Description: as §1
b) inhibition of the activity of the purified Na^+,K^+ -ATPase measured as % of hydrolysis of ^32 P-ATP in presence and in absence of the tested compound (Doucet A. et al., Am. J. Physiol., 1986, 251, F851)

[3] = tested on: spontaneous hypertensive rats (MHS); test: effect of 5 week-treatment on the development of hypertension; SBP and HR by tail cuff method; assay type: in vivo, rat (MHS); settings: 20 mg/Kg/os daily in Methocel 0.5%, 5 weeks; for SBP: n=7, controls 172 +/- 5,0; for HR: n=7, controls 380 +/- 6,3
Method: Systolic blood pressure (SBP) and heart rate (HR) were measured, by the tail cuff method, in young prehypertensive male rats (MHS or SHR) strains before the development of hypertension (4 weeks of age) for recording the basal values of SBP. Groups of 7 rats were formed and subdivided in control and treated groups. The compound, suspended in Methocel 0.5% (w/v), was orally given daily for at least 5 weeks to the treated groups. The control group received only Methocel.
SBP and HR were measured weekly 6 and 24 hrs after treatment. After 5 weeks of treatment, when hypertension was fully developed in the control group (9 weeks of age), washout was started for at least one week, to verify whether the treatment maintained blood pressure low or reestablished the basal values.

[4] = 3H-ouabain, purified Na+,K+-ATPase, read-out: Binding 3H-Ouab. Displacement log IC50 (converted)
[5] = 32P-ATP hydrolysis, purified Na+,K+-ATPase, read-out: Inhibitory Activity log IC50 (converted)

| Compound | IC50 [1, 4] [µM] | IC50 [2, 5] [µM] | SBP [3] | HR [3] | IC50 [1] [µM] | IC50 [2] [µM] |
| --- | --- | --- | --- | --- | --- | --- |
| CN(C)CCO/N=C/[C@H]1CC[C@]2(O)C[C@@H](c3ccccc3)CC[C@]12C [I-ap, (1S,3aS,5S,7aR)-1-[(E)-2-Dimethylaminoethoxyimino]methyl-5-phenyl-7a-methylperhydroinden-3a-ol] | 2 | 39.8 | 155 +/- 4,3 mm Hg | 370 +/- 10,5 bEATS/min. | – | – |
| CN(C)CCO/N=C/[C@H]1CC[C@]2(O)C[C@@H](c3ccc(O)cc3)CC[C@]12C [I-ax, (1S,3aS,5S,7aR)-1-[(E)-2-Dimethylaminoethoxyimino]methyl-5-(4-hydroxyphenyl)-7a-methylperhydroinden-3a-ol] | 1.58 | 39.8 | 156 +/- 4,6 mm Hg | 383 +/- 11,4 bEATS/min. | – | – |
| C[C@]12CC[C@H](c3ccc(CO)cc3)C[C@@]1(O)CC[C@@H]2/C=N/OCCN [I-bb, (1S,3aS,5S,7aR)-1-[(E)-2-Aminoethoxyimino]methyl-5-(4-hydroxymethylphenyl)-7a-methylperhydroinden-3a-ol] | 1.58 | 25.1 | – | – | – | – |
| CN(C)CCO/N=C/[C@H]1CC[C@]2(O)C[C@@H](c3cccc(O)c3)CC[C@]12C [I-au, (1S,3aS,5S,7aR)-1-[(E)-2-Dimethylaminoethoxyimino]methyl-5-(3-hydroxyphenyl)-7a-methylperhydroinden-3a-ol] | 6.31 | 50.1 | – | – | – | – |
| CN(C)CCO/N=C/[C@H]1CC[C@]2(O)C[C@@H](c3ccc(CO)cc3)CC[C@]12C [I-bc, (1S,3aS,5S,7aR)-1-[(E)-2-Dimethylaminoethoxyimino]methyl-5-(4-hydroxymethylphenyl)-7a-methylperhydroinden-3a-ol] | 5.01 | 50.1 | 160 +/- 7,8 mm Hg | 377 +/- 10,5 bEATS/min. | – | – |
| Cc1ccc([C@H]2CC[C@]3(C)[C@@H](/C=N/OCCN)CC[C@]3(O)C2)cc1 [I-bg, (1S,3aS,5S,7aR)-1-[(E)-2-Aminoethoxyimino]methyl-5-(4-methylphenyl)-7a-methylperhydroinden-3a-ol oxalate] | – | – | – | – | 3.98 | 31.6 |
| CN(C)CCONC[C@H]1CC[C@]2(O)C[C@@H](c3cccc(O)c3)CC[C@]12C [I-di, (1S,3aS,5S,7aR)-1-(2-Dimethylaminoethoxyamino)methyl-5-(3-hydroxyphenyl)-7a-methylperhydroinden-3a-ol oxalate] | – | – | – | – | 7.94 | 50.1 |
| CN(C)CCO/N=C/[C@H]1CC[C@]2(O)C/C(=C/CCO)CC[C@]12C [I-by, (1S,3aS,7aR)-1-[(E)-2-Dimethylaminoethoxyimino]methyl-5-[(E)-3-hydroxypropyliden]-7a-methylperhydroinden-3a-ol] | 20 | 63.1 | – | – | – | – |
| CN(C)CCONC[C@H]1CC[C@]2(O)C[C@@H](c3ccccc3)CC[C@]12C [I-df, (1S,3aS,5S,7aR)-1-(2-Dimethylaminoethoxyamino)methyl-5-phenyl-7a-methylperhydroinden-3a-ol oxalate] | – | – | – | – | 6.31 | 50.1 |
| Cc1ccc([C@H]2CC[C@]3(C)[C@@H](/C=N/OCCN(C)C)CC[C@]3(O)C2)cc1 [I-bh, (1S,3aS,5S,7aR)-1-[(E)-2-Dimethylaminoethoxyimino]methyl-5-(4-methylphenyl)-7a-methylperhydroinden-3a-ol] | 6.31 | 50.1 | – | – | – | – |
| CN(C)CCO/N=C/[C@H]1CC[C@]2(O)C/C(=C\CCO)CC[C@]12C [I-bx, (1S,3aS,7aR)-1-[(E)-2-Dimethylaminoethoxyimino]methyl-5-[(Z)-3-hydroxypropyliden]-7a-methylperhydroinden-3a-ol] | 12.6 | 63.1 | – | – | – | – |
